The term IC50 denotes the concentration at which inhibition is half-maximal.

Some results are limits rather than exact numbers.

T1 sequence (P08581 25-1390): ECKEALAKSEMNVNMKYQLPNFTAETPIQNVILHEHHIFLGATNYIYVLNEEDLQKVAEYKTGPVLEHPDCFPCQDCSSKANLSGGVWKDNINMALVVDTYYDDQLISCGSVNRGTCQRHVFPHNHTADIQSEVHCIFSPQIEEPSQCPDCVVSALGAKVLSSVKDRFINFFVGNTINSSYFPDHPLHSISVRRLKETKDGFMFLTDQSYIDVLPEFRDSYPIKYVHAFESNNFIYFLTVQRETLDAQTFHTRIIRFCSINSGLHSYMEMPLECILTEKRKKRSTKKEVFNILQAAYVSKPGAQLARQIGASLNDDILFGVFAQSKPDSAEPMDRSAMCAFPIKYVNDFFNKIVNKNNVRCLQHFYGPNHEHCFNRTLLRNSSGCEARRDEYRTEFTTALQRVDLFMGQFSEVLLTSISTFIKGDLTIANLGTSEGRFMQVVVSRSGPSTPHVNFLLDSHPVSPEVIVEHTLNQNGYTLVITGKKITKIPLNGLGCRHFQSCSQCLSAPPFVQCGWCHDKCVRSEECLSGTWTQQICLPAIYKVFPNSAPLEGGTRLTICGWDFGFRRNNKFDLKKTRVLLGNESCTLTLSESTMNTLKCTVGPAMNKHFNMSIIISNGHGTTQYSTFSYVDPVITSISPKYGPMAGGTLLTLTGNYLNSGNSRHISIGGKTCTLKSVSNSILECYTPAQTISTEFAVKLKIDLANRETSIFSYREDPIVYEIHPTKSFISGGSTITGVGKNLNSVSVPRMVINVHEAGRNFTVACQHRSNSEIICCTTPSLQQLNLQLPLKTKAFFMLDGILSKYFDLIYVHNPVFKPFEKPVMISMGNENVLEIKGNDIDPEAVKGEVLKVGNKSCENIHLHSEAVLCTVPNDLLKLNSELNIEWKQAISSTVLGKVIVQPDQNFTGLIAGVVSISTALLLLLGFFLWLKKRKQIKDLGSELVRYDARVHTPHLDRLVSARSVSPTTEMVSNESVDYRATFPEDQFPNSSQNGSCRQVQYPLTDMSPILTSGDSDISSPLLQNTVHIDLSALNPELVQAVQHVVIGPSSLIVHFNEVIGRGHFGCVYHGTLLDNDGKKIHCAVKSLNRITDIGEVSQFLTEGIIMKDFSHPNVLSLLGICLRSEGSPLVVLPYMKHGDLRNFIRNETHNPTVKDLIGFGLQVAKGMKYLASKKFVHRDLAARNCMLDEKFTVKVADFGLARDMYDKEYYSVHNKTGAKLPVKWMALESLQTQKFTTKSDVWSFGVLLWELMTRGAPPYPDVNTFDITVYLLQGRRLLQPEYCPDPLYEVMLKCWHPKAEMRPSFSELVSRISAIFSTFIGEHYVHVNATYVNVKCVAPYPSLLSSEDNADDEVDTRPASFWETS

The experiment addresses T1, c-Met kinase (recombinant c-Met) (Homo sapiens, UniProt P08581).
T1 construct: 0.27 nM recombinant c-Met
As to the kind of experiment: In vitro kinase assay I (homogeneous time-resolved fluorescence tyrosine kinase assay). In kind it is biochemical. An outline of the steps:
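Biotinylated peptide (0.5 μM) phosphorylated by 0.2 nM recombinant c-Met with 50 μM MgATP, 60 min at room temperature, pH 7.4, 5% DMSO. EDTA stop; HTRF read with Eu-anti-phosphotyrosine antibody and streptavidin-APC. IC50 from 4-parameter logistic fit.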
For the compound `CCn1cc(-n2ccc(=O)c(Cc3cccc(NC(=O)OCC(C)C)c3)n2)cn1` [Example 110, 2-methylpropyl (3-{[1-(1-ethyl-1H-pyrazol-4-yl)-4-oxo-1,4-dihydropyridazin-3-yl]methyl}phenyl)carbamate], the IC50 was below 0.1 µM.

Turning to `CC(C)COC(=O)Nc1cccc(Cc2nn(-c3cc(F)c(F)c(F)c3)ccc2=O)c1` [Example 7, 2-methylpropyl (3-{[4-oxo-1-(3,4,5-trifluorophenyl)-1,4-dihydropyridazin-3-yl]methyl}phenyl)carbamate], the IC50 is below 0.1 µM.

For the compound `Cn1cc(-n2ccc(=O)c(Cc3cccc(-c4ncn(CCCC5CCCO5)n4)c3)n2)cn1` (racemic) [Example 721, rac-1-(1-methyl-1H-pyrazol-4-yl)-3-(3-{1-[3-(tetrahydrofuran-2-yl)propyl]-1H-1,2,4-triazol-3-yl}benzyl)pyridazin-4(1H)-one], the IC50 is below 0.1 µM.

On to `Cn1cc(-c2cnc(-c3cccc(Cc4nn(-c5cc(Cl)cc(C#N)c5)ccc4=O)c3)nc2)cn1` [Example 158, 3-chloro-5-[3-{3-[5-(1-methyl-1H-pyrazol-4-yl)pyrimidin-2-yl]benzyl}-4-oxopyridazin-1(4H)-yl]benzonitrile], for which the IC50 was below 0.1 µM.

In the case of `Cn1cc(-n2ccc(=O)c(Cc3cccc(-c4ncc(OCCn5cncn5)cn4)c3)n2)cn1` [Example 271, 1-(1-methyl-1H-pyrazol-4-yl)-3-(3-{5-[2-(1H-1,2,4-triazol-1-yl)ethoxy]pyrimidin-2-yl}benzyl)pyridazin-4(1H)-one], the IC50 was below 0.1 µM.

For `CCOc1cnc(-c2cccc(Cc3nn(-c4ccc(Br)c(F)c4)ccc3=O)c2)nc1` [Example 145, 1-(4-Bromo-3-fluorophenyl)-3-[3-(5-ethoxypyrimidin-2-yl)benzyl]pyridazin-4(1H)-one], the IC50 is below 0.1 µM.

As for `CCOC(=O)Nc1cccc(Cc2nn(-c3cnn(CCO)c3)ccc2=O)c1` [Example 643, Ethyl [3-({1-[1-(2-hydroxyethyl)-1H-pyrazol-4-yl]-4-oxo-1,4-dihydropyridazin-3-yl}methyl)phenyl]carbamate], the IC50 is below 0.1 µM.

For `COc1cnc(-c2cccc(Cc3nn(-c4cncc(C#N)c4)ccc3=O)c2)nc1` [Example 733, 5-{3-[3-(5-Methoxypyrimidin-2-yl)benzyl]-4-oxopyridazin-1(4h)-yl}pyridine-3-carbonitrile], the IC50 was below 0.1 µM.

In the case of `Cn1cc(-n2ccc(=O)c(Cc3cccc(NC(=O)OCCC(F)(F)F)c3)n2)cn1` [Example 564, 3,3,3-trifluoropropyl (3-{[1-(1-methyl-1H-pyrazol-4-yl)-4-oxo-1,4-dihydropyridazin-3-yl]methyl}phenyl)carbamate], the IC50 was below 0.1 µM.

Turning to `CCCOC(=O)Nc1cccc(Cc2nn(-c3cncc(F)c3)ccc2=O)c1` [Example 35, propyl (3-{[1-(5-fluoropyridin-3-yl)-4-oxo-1,4-dihydropyridazin-3-yl]methyl}phenyl)carbamate], the IC50 is below 0.1 µM.

With `CN(C)Cc1cnc(-c2cccc(Cc3nn(-c4cnn(C)c4)ccc3=O)c2)nc1` [Example 430, 3-(3-{5-[(dimethylamino)methyl]pyrimidin-2-yl}benzyl)-1-(1-methyl-1H-pyrazol-4-yl)pyridazin-4(1H)-one], the IC50 is below 0.1 µM.

With `Cn1cc(-n2ccc(=O)c(Cc3cccc(-c4ncc(OC5CCOCC5)cn4)c3)n2)cn1` [Example 277, 1-(1-methyl-1H-pyrazol-4-yl)-3-{3-[5-(tetrahydro-2H-pyran-4-yloxy)pyrimidin-2-yl]benzyl}pyridazin-4(1H)-one], the IC50 is below 0.1 µM.

`COCCOc1cnc(-c2cccc(Cc3nn(-c4cc(F)cc(F)c4)ccc3=O)c2)nc1` [Example 149, 1-(3,5-difluorophenyl)-3-{3-[5-(2-methoxyethoxy)pyrimidin-2-yl]benzyl}pyridazin-4(1H)-one]: the IC50 was below 0.1 µM.

In the case of `COC/C=C/c1cnc(-c2cccc(Cc3nn(-c4cnn(C)c4)ccc3=O)c2)nc1` [Example 402, 3-(3-{5-[(1E)-3-methoxyprop-1-en-1-yl]pyrimidin-2-yl}benzyl)-1-(1-methyl-1H-pyrazol-4-yl)pyridazin-4(1H)-one], the IC50 was below 0.1 µM.

For the compound `CCOc1cnc2ccc(Cc3nn(-c4cnn(CC)c4)ccc3=O)cc2c1` [Example 160, 3-[(3-ethoxyquinolin-6-yl)methyl]-1-(1-ethyl-1H-pyrazol-4-yl)pyridazin-4(1H)-one], the IC50 was 0.1 to 1 µM.

`CCOc1cnc2ccc(Cc3nn(-c4cnn(C)c4)ccc3=O)cc2c1` [Example 59, 3-[(3-ethoxyquinolin-6-yl)methyl]-1-(1-methyl-1H-pyrazol-4-yl)pyridazin-4(1H)-one]: the IC50 lay within 0.1 to 1 µM.

Turning to `CCOCC(O)COc1cnc(-c2cccc(Cc3nn(-c4cnn(C)c4)ccc3=O)c2)nc1` (racemic) [Example 370, rac-3-{3-[5-(3-ethoxy-2-hydroxypropoxy)pyrimidin-2-yl]benzyl}-1-(1-methyl-1H-pyrazol-4-yl)pyridazin-4(1H)-one], the IC50 was below 0.1 µM.

On to `Cn1cc(-n2ccc(=O)c(Cc3cccc(NC(=O)OCC4CCCC4)c3)n2)cn1` [Example 539, cyclopentylmethyl (3-{[1-(1-methyl-1H-pyrazol-4-yl)-4-oxo-1,4-dihydropyridazin-3-yl]methyl}phenyl)carbamate], for which the IC50 was below 0.1 µM.

In the case of `CC(C)COC(=O)Nc1cccc(Cc2nn(-c3cnn(CCCN(C)C)c3)ccc2=O)c1` [Example 667, 2-Methylpropyl {3-[(1-{1-[3-(dimethylamino)propyl]-1H-pyrazol-4-yl}-4-exo-1,4-dihydropyridazin-3-yl)methyl]phenyl}carbamate], the IC50 fell in the range of 0.1 to 1 µM.

As to `CCCn1cnc(-c2cccc(C(C)c3nn(-c4cnn(C)c4)ccc3=O)c2)n1` (single isomer, unassigned) [Example 684, 1-(1-methyl-1H-pyrazol-4-yl)-3-{(1S or R)-1-[3-(1-propyl-1H-1,2,4-triazol-3-yl)phenyl]ethyl} pyridazin-4(1H)-one], the IC50 fell in the range of 1 to 3 µM.

On to `CC(C)(O)COc1cnc(-c2cccc(Cc3nn(-c4cc(F)c(F)c(F)c4)ccc3=O)c2)nc1` [Example 362, 3-{3-[5-(2-hydroxy-2-methylpropoxy)pyrimidin-2-yl]benzyl}-1-(3,4,5-trifluorophenyl)pyridazin-4(1H)-one], for which the IC50 is below 0.1 µM.

With `CCn1cc(-n2ccc(=O)c(Cc3cccc(-c4ncc(OCCO)cn4)c3)n2)cn1` [Example 307, 1-(1-ethyl-1H-pyrazol-4-yl)-3-{3-[5-(2-hydroxyethoxy)pyrimidin-2-yl]benzyl}pyridazin-4(1H)-one], the IC50 was below 0.1 µM.

In the case of `O=c1ccn(-c2cc(F)cc(F)c2)nc1Cc1cccc(-c2ncc(OC3COC3)cn2)c1` [Example 330], the IC50 is below 0.1 µM.

As for `Cn1cc(-n2ccc(=O)c(Cc3cccc(-c4ncc(O)cn4)c3)n2)cn1` [Example 187, 3-[3-(5-Hydroxypyrimidin-2-yl)benzyl]-1-(1-methyl-1H-pyrazol-4-yl)pyridazin-4(1H)-one], the IC50 is 0.1 to 1 µM.

On to `CCOc1cnc(-c2cccc(C(C)c3nn(-c4cnn(CC)c4)ccc3=O)c2)nc1` (single isomer, unassigned) [Example 246, 3-{(1R or S)-1-[3-(5-ethoxypyrimidin-2-yl)phenyl]ethyl}-1-(1-ethyl-1H-pyrazol-4-yl)pyridazin-4(1H)-one], for which the IC50 is below 0.1 µM.

For the compound `CC(C)COC(=O)Nc1cccc(Cc2nn(-c3ccc(Br)cc3)ccc2=O)c1` [Example 68, 2-methylpropyl (3-{[1-(4-bromophenyl)-4-oxo-1,4-dihydropyridazin-3-yl]methyl}phenyl)carbamate], the IC50 was below 0.1 µM.

Consider `CCC(=O)Nc1cnc(-c2cccc(Cc3nn(-c4cnn(C)c4)ccc3=O)c2)nc1` [Example 460, N-[2-(3-{[1-(1-methyl-1H-pyrazol-4-yl)-4-oxo-1,4-dihydro-pyridazin-3-yl]methyl}phenyl)pyrimidin-5-yl}propanamide], for which the IC50 is below 0.1 µM.

Take `CCOC(=O)c1cccc(Cc2nn(-c3cnn(C)c3)ccc2=O)c1F` [Example 47, ethyl 2-fluoro-3-{[1-(1-methyl-1H-pyrazol-4-yl)-4-oxo-1,4-dihydropyridazin-3-yl]methyl}benzoate]: the IC50 is 0.1 to 1 µM.

As for `CCOC(=O)Nc1cccc(Cc2nn(-c3cc(F)c(F)c(F)c3)ccc2=O)c1` [Example 2, Ethyl(3-{[4-oxo-1-(3,4,5-trifluorophenyl)-1,4-dihydropyridazin-3-yl]methyl}phenyl)carbamate], the concentration for half-maximal inhibition (IC50) is below 0.1 µM.

For `CCn1cc(-n2ccc(=O)c(C(C)c3cccc(-c4ncc(OCCOC)cn4)c3)n2)cn1` (single isomer, unassigned) [Example 248, 1-(1-ethyl-1H-pyrazol-4-yl)-3-((1R or S)-1-{3-[5-(2-methoxyethoxy)pyrimidin-2-yl]phenyl}ethyl)pyridazin-4(1H)-one], the IC50 was below 0.1 µM.

In the case of `CC(C)COC(=O)Nc1cccc(Cc2nn(-c3cnn(CC(C)C)c3)ccc2=O)c1` [Example 94, 2-methylpropyl [3-({1-[1-(2-methylpropyl)-1H-pyrazol-4-yl]-4-oxo-1,4-dihydropyridazin-3-yl}methyl)phenyl]carbamate], the IC50 fell in the range of 0.1 to 1 µM.

As to `CCNC(=O)Nc1cccc(Cc2nn(-c3cnn(C)c3)ccc2=O)c1` [Example 488, 1-ethyl-3-(3-{[1-(1-methyl-1H-pyrazol-4-yl)-4-oxo-1,4-dihydropyridazin-3-yl]methyl}phenyl)urea], the IC50 is below 0.1 µM.

Turning to `COCCOc1cnc(-c2cccc(Cc3nn(-c4cccc(C#N)c4)ccc3=O)c2)nc1` [Example 319, 3-[3-{3-[5-(2-methoxyethoxy)pyrimidin-2-yl]benzyl}-4-oxopyridazin-1(4H)-yl]benzonitrile], the IC50 is below 0.1 µM.

Take `Cn1cc(-n2ccc(=O)c(Cc3cccc(-c4ncc(OCCN5CCOCC5)cn4)c3)n2)cn1` [Example 263, 1-(1-methyl-1H-pyrazol-4-yl)-3-{3-[5-(2-morpholin-4-ylethoxy)pyrimidin-2-yl]benzyl}pyridazin-4(1H)-one]: the IC50 was below 0.1 µM.

For the origin of these results see patent US20120264735A1 (priority 2009, published 2012).
